Calls of active or inactive are those of the source. No rule for the calls is given here.

The assay has as its system S. cerevisiae tim10-1 mutant growth, luminescence. The assay can be described thus: growth inhibitors of tim10-1 mutant yeast, dose response, luminescence, S. cerevisiae, uHTS hits (AID 493003).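 Also: yeast growth measured after about 22 hours at 25 °C.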
As for `O=C(Nc1cccc(Cl)c1)N1N=CCC1c1ccccc1` (centres undefined), the IC50 was 29.6 µM.

Consider `Cc1cc(N2C3CCC2CC(O)(c2ccc(F)cc2)C3)nc(-c2ccccc2)n1` (centres undefined), for which the 50% inhibitory concentration (IC50) was 25.4 µM.

In the case of `OC(COc1ccc2ccccc2c1Br)Cn1cnc(-c2ccccc2)c1` (centres undefined), the IC50 was 18.1 µM.

For the compound `COc1cc(OC)c(C(=O)O/N=C(\N)c2cccc(C)c2)cc1OC`, the IC50 was 17.7 µM.

With `NC(=O)C1CCN(C2CC(=O)N(c3ccc(F)c(Cl)c3)C2=O)CC1` (centres undefined), the half-maximal inhibitory concentration (IC50) is 21.3 µM.

For the compound `Cc1ccccc1NC(=O)CSc1nc(N)c2c3c(sc2n1)CSC(C)(C)C3`, the IC50 is 36.6 µM.

With `CC(=O)c1ccc(NC(=S)NC(C)c2ccc(Cl)cc2Cl)cc1` (centres undefined), the IC50 is 13.2 µM.

For the compound `CCC(=NCc1ccccc1)c1c(C(F)(F)F)[nH]n(-c2nc3ccccc3s2)c1=O`, the IC50 is > 100 µM (inactive).

On to `Cc1c(C)n(Cc2ccccc2)c2ccc(C(=O)OCCN(C)C)cc12`, for which the IC50 was 32.1 µM.

`O=c1c2[nH]c3ccc(F)cc3c2nc2n1CCS2`: the half-maximal inhibitory concentration (IC50) was 27.8 µM.

As to `Cc1nonc1C1CCCN1C(=O)c1cc(COc2cccc(C(F)(F)F)c2)on1` (centres undefined), the 50% inhibitory concentration (IC50) was 17.3 µM.

With `O=C(COC(=O)c1ccccc1C(=O)c1ccccc1)Nc1ccc(SC(F)F)cc1`, the IC50 was 72.9 µM.

Turning to `Cc1c(C)n(C)c2ccc(C(=O)Nc3cccc4ccccc34)cc12`, the IC50 is > 100 µM (inactive).

Take `O=C(c1cc(COc2cccc(C(F)(F)F)c2)on1)N1C[C@@H]2CCC[C@H]1C2`: the IC50 is 27.3 µM.

As to `O=C1CN(C(=O)/C=C/c2cccc(Cl)c2)c2ccccc2N1`, the IC50 is 30.3 µM.

In the case of `Cc1sc2ncnc(Oc3ccc(-n4ccnc4)cc3)c2c1C`, the half-maximal inhibitory concentration (IC50) was 46 µM.

On to `COc1cc(C(=O)O/N=C(\N)Cc2ccc([N+](=O)[O-])cc2)cc(OC)c1OC`, for which the concentration for half-maximal inhibition (IC50) was 22.3 µM.

On to `O=C(Nc1ccc2c(c1)OCO2)c1cccc2c1C(=O)N(Cc1cccnc1)C2`, for which the IC50 was 41.2 µM.

Regarding `COc1ccc(-c2cn3c(C)c(C(=O)N4CCc5ccccc5C4)sc3n2)cc1`, the half-inhibitory concentration (IC50) is 40 µM.

Regarding `COc1cc(OC)c(C(=O)O/N=C(\N)c2ccc(C)cc2)cc1OC`, the IC50 was 14.5 µM.

As to `Cn1c2ccccc2c(=O)c2ccc(C#CC3(O)CCCCC3)cc21`, the IC50 is 24.5 µM.

For `Cc1ccc(S(=O)(=O)c2nc(S(C)(=O)=O)sc2N2CCCCC2C)cc1` (centres undefined), the IC50 is 7.08 µM.

On to `CCSc1nc2ccccc2n1C(=O)/C=C\c1ccc(OC)c(OC)c1`, for which the IC50 is 10.4 µM.

In the case of `CN1/C(=C\C(=O)Nc2ccc(Br)cc2)C(C)(C)c2ccccc21`, the IC50 was 38.7 µM.

Turning to `Cc1cc(Nc2nc(Cl)c(Cl)cc2Cl)n(-c2ccccc2)n1`, the half-maximal inhibitory concentration (IC50) was 27.1 µM.

For the compound `Nc1nc(Nc2cccc(C(F)(F)F)c2)nc(C(F)(F)F)n1`, the 50% inhibitory concentration (IC50) is 23.4 µM.

`COc1ccc(OC)c(N=c2ssnc2Cl)c1`: the IC50 is 21 µM.

For `Cc1[nH]nc2c1-c1nc3ccccc3nc1C(C)(C)C2`, the 50% inhibitory concentration (IC50) is 23.8 µM.

Turning to `COc1cc(C(=O)Nc2ccc(Cl)c(C(F)(F)F)c2)cc(OC)c1OC`, the 50% inhibitory concentration (IC50) is 16.8 µM.

With `N/C(=N\S(=O)(=O)c1cc(C(F)(F)F)cc(C(F)(F)F)c1)c1ccc(Cl)cc1`, the IC50 is 49.7 µM.

As to `CN1C(=O)C(O)(CC(=O)c2cccc(-n3cccc3)c2)c2ccccc21` (centres undefined), the IC50 is 40 µM.

With `O=C(CSCc1ccccc1Cl)NNC(=S)Nc1ccccc1`, the half-inhibitory concentration (IC50) is 33 µM.

In the case of `O=C(CN1CCN(S(=O)(=O)c2ccc(Br)cc2)CC1)N/N=C/c1ccc(Br)s1`, the 50% inhibitory concentration (IC50) was 43 µM.

Take `N/C(=N\OC(=O)CCC1CCCCC1)c1ccccn1`: the IC50 is 26.8 µM.

For `CCCOc1ccc(N2C(=O)CC(N3CCC(O)(c4cccc(C(F)(F)F)c4)CC3)C2=O)cc1` (centres undefined), the IC50 is 13 µM.

Regarding `Cc1nn(C)c(C(=O)NC(=S)Nc2ccc([N+](=O)[O-])cc2)c1Cl`, the 50% inhibitory concentration (IC50) was 74.5 µM.

With `O=C(Nc1ccccc1Br)C1CC(=O)N(c2ccc3c4c(cccc24)CC3)C1` (centres undefined), the IC50 is 77.7 µM.

Turning to `O=C(NNC(=S)Nc1cccc(C(F)(F)F)c1)c1cccc(Cl)c1`, the IC50 was 10 µM.

As for `COc1ccc(C(=O)Nc2ccc(S(=O)(=O)N3CCCCC3)cc2)cc1OC`, the concentration for half-maximal inhibition (IC50) was 27.9 µM.

`Oc1c(Cl)cc(Cl)cc1CNc1ccc(Br)cn1`: the IC50 is 33.2 µM.

Turning to `COc1ccc(Br)cc1[C@H]1[C@@H]2C=CCC[C@@]2(C)C(=O)N1Cc1ccccc1`, the concentration for half-maximal inhibition (IC50) was 12.1 µM.

Turning to `N/C(=N\OC(=O)CCCOc1ccc(Cl)cc1Cl)c1ccccn1`, the IC50 was 34 µM.

For `CN(CCc1ccccn1)C1CC(=O)N(c2ccc(Cl)cc2)C1=O` (centres undefined), the IC50 was 24.7 µM.

For `COc1ccc2[nH]c3c(=O)n4c(nc3c2c1)SCC4`, the 50% inhibitory concentration (IC50) is 79.9 µM.

As for `CC(Oc1ccc(Cl)cc1Cl)C(=O)NC1=NN(c2ccccc2)C(=O)C1` (centres undefined), the IC50 was 15.2 µM.

For `N/C(=N\OC(=O)CCCOc1ccccc1)c1cccc([N+](=O)[O-])c1`, the half-inhibitory concentration (IC50) is 53.4 µM.

`CCCCC(CC)C(=O)Nc1ncc([N+](=O)[O-])s1` (centres undefined): the 50% inhibitory concentration (IC50) is 19.3 µM.

For `O=C(Nc1ccccc1Cl)C(Cl)C(=O)c1ccccc1` (centres undefined), the IC50 is 70.1 µM.

Consider `Cc1ccccc1OCC(=O)Nc1ccc(Cc2ccncc2)cc1`, for which the IC50 was 41.7 µM.

`CCOc1ccccc1C(=O)Nc1cc(OC)ccc1OC`: the 50% inhibitory concentration (IC50) is 35.1 µM.

For the compound `Cc1c(Cl)c([N+](=O)[O-])nn1Cc1ccc(C(=O)Nc2ccc(Cl)cn2)o1`, the concentration for half-maximal inhibition (IC50) is 47.6 µM.

On to `CC[C@@H]1CC=C[C@H]2[C@H]1C(=O)N(Cc1ccccc1)[C@H]2c1ccoc1`, for which the IC50 is 7.61 µM.

As for `COc1ccc(-c2cc(C3CC3)nc3sc(C#N)c(N)c23)cc1`, the concentration for half-maximal inhibition (IC50) is 12.7 µM.

In the case of `CCCOc1ccccc1NC(=O)/C=C/C(N)=O`, the IC50 was 5.67 µM.

Consider `COc1cccc(-c2csc(N3CCN(C(=S)Nc4ccccc4Cl)CC3)n2)c1`, for which the 50% inhibitory concentration (IC50) is 21.3 µM.

On to `COc1ccc(N2C(=O)CC(Sc3nnc(-c4ccccc4)o3)C2=O)cc1` (centres undefined), for which the concentration for half-maximal inhibition (IC50) is 47.2 µM.

For `Cc1nn(-c2ccccc2)c2c1C1(C(=O)N(C)c3ccccc31)C(C#N)=C(N)O2` (centres undefined), the IC50 was 53.4 µM.

For the compound `COc1ccc(C(=O)O/N=C(\N)Cc2ccc(Cl)c(Cl)c2)cc1OC`, the half-maximal inhibitory concentration (IC50) was 0.76 µM.

Turning to `CC(C)(C)C(=O)Nc1nnc(SCc2ccc(F)cc2)s1`, the IC50 is 42.2 µM.

Regarding `Cc1[nH]n(-c2ccccc2)c(=O)c1C(c1ccccc1[N+](=O)[O-])C(C#N)C#N` (centres undefined), the IC50 was 18.2 µM.

Turning to `Cc1nn(-c2ccccc2)c(Cl)c1C(=O)N1CCN(c2ncnc3c2cnn3-c2ccccc2)CC1`, the IC50 is > 100 µM (inactive).

Take `Cc1sc(NC(=O)c2ccco2)c(C(c2cccnc2)N2CCCC2)c1C` (centres undefined): the IC50 is 17.2 µM.

`O=c1c2ccccc2oc2ccc(C#CC3(O)CCCCC3)cc12`: the half-maximal inhibitory concentration (IC50) was 23.3 µM.

`COc1cc2c(cc1OC)CN(C(=O)c1ccc(-c3ccccc3)cc1)CC2`: the IC50 is 47.3 µM.

Regarding `Cc1nn2c(c1-c1ccc(Cl)cc1)N=C(c1ccco1)CC2c1ccccc1` (centres undefined), the IC50 was 23.2 µM.

As for `Cc1nn(C)c(C)c1NC(=O)Nc1ccc(Cl)c(Cl)c1`, the IC50 was 22.4 µM.

Regarding `COc1ccc(OCC(=O)Nc2ccc(S(=O)(=O)N3CCCCC3)cc2)cc1`, the IC50 is 36.4 µM.

Consider `COc1ccc2nc(/N=C(\N)NC(=O)Nc3ccccc3)nc(C)c2c1`, for which the half-maximal inhibitory concentration (IC50) is 47.3 µM.

As to `O=C(/C=C/c1ccccc1)CC(O)(c1ccccc1)C(F)(F)C(F)F` (centres undefined), the concentration for half-maximal inhibition (IC50) was 16.3 µM.

For the compound `O=C(ON=C1CCN(S(=O)(=O)c2ccccc2)CC1)c1ccc(F)cc1`, the IC50 was 26.4 µM.

As for `Cc1sc2ncnc(N3CCN(CCOc4ccc(Cl)cc4)CC3)c2c1C`, the IC50 was 38.2 µM.

For `Cc1c(C(=O)NC2CCCc3ccccc32)oc2ccccc12` (centres undefined), the IC50 is 20.2 µM.

In the case of `O=C(NNC(=S)Nc1cccc(C(F)(F)F)c1)c1ccc(Cl)cc1Cl`, the IC50 is 8.5 µM.

For `CC(=O)/C(=N\Nc1ccc(Cl)cc1Cl)Sc1cccc2cccnc12`, the IC50 is 41.3 µM.

For the compound `Cc1cccc(Oc2cc(NC(=O)c3ccccc3)cc([N+](=O)[O-])c2)c1`, the half-inhibitory concentration (IC50) is 20.4 µM.

In the case of `CCOC(=O)c1c(OCC)[nH]c2c1cc(O)c1ccccc12`, the IC50 was 17.9 µM.

Regarding `CC(C)C1O/C(=N/C(=O)Nc2ccc(Cl)c(Cl)c2)NC1=O` (centres undefined), the IC50 was 32.3 µM.

`S=C(NCCCc1ccccc1)Nc1ccc(Cl)cc1`: the concentration for half-maximal inhibition (IC50) was 11.4 µM.

On to `COC(=O)C(C(C)=O)C1=C/C(=N\S(=O)(=O)c2ccc(C)cc2)c2ccccc2C1=O` (centres undefined), for which the IC50 was 8.03 µM.

For `Cc1cccc(C(=O)O/N=C(/c2ccccc2)c2ccncc2)c1`, the IC50 was 26.1 µM.

Consider `Cc1ccc(OCC(=O)O/N=C(\N)Cc2ccc([N+](=O)[O-])cc2)cc1C`, for which the half-maximal inhibitory concentration (IC50) was 25.1 µM.

With `COc1ccc(Cc2n[nH]c(=S)n2NC(=O)Nc2ccc(Cl)c(Cl)c2)cc1`, the IC50 is 56.5 µM.

For the compound `O=S(=O)(/N=C(/Sc1ccccc1)c1ccccc1)c1ccccc1`, the IC50 was 25.7 µM.

Regarding `c1ccc(Nc2cccc(Nc3ccccc3)c2)cc1`, the 50% inhibitory concentration (IC50) is 11.2 µM.

Regarding `COc1ccc(-c2csc(CCn3nc(C)cc3C)n2)cc1`, the half-inhibitory concentration (IC50) was 30.1 µM.

Take `Cn1nc(-c2ccccc2)cc1NC(=O)Nc1ccc(C(C)(C)C)cc1`: the IC50 is 20.3 µM.

In the case of `COc1ccc(-c2oc3ncnc(NCCCN(C)C)c3c2-c2ccc(OC)cc2)cc1`, the IC50 was 65.5 µM.

Turning to `Cc1ccc(CNC(=O)c2ccc(Cn3nc(C)c(Cl)c3C)o2)cc1`, the IC50 is 10.3 µM.

In the case of `CCCN(Cc1ccccc1)C(=S)Nc1cccc(C(F)(F)F)c1`, the 50% inhibitory concentration (IC50) was 66.1 µM.

As to `COc1cc(N=c2ssnc2Cl)c(OC)cc1Cl`, the half-maximal inhibitory concentration (IC50) was 13 µM.

With `c1ccc(-c2csc3ncnc(-n4cnc5ccccc54)c23)cc1`, the half-inhibitory concentration (IC50) was 15.8 µM.

For `Cc1cc(N(CCO)CCO)ccc1N=Nc1cc(F)ccc1F`, the IC50 is 26.1 µM.

For `N/C(=N\OC(=O)CCC1CCCC1)c1ccccc1`, the half-inhibitory concentration (IC50) is 16.7 µM.

Consider `C[C@@]12CCC=C[C@H]1[C@H](c1ccc3ccccc3c1)N(Cc1ccccc1)C2=O`, for which the 50% inhibitory concentration (IC50) is 22.2 µM.

On to `COC(=O)c1cc(NC(=S)Nc2cc(Cl)cc(Cl)c2)cc(C(=O)OC)c1`, for which the 50% inhibitory concentration (IC50) is 23 µM.

With `O=[N+]([O-])c1cc(/C=N/O)ccc1Oc1ccccc1Cl`, the half-maximal inhibitory concentration (IC50) was 33.9 µM.

Regarding `CN=C(Nc1cc(Cl)ccc1Cl)SC1CC(=O)N(c2ccc(C(=O)OC)cc2)C1=O` (centres undefined), the half-inhibitory concentration (IC50) was 12.6 µM.

Regarding `CCOc1ccc(-n2cc(-c3ccccc3)c3c(=O)[nH]cnc32)cc1`, the IC50 was 14.9 µM.

Take `O=[N+]([O-])/C(C(Cl)=C(Cl)Cl)=C(\Sc1ccccc1)N1CCCCC1`: the IC50 is 53 µM.

These data come from PubChem BioAssay AID493003 (Sanford-Burnham Center for Chemical Genomics, 2010).
